Molecular target: T1, human Kir2.1 (Homo sapiens, UniProt P63252)
T1 construct: gene KCNJ2; tags kept
T1 sequence (P63252 1-427): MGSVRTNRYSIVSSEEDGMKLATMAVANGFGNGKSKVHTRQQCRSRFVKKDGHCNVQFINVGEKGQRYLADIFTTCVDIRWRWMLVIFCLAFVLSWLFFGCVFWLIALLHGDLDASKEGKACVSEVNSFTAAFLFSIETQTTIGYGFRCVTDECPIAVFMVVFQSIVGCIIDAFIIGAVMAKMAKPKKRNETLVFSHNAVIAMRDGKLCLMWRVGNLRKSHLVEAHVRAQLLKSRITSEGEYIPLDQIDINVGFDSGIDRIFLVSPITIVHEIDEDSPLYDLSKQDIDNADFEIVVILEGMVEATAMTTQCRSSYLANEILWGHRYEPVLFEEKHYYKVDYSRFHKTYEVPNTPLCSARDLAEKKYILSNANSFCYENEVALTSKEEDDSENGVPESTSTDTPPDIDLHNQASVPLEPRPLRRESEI
Assay: […]+ uptake into proteoliposomes
Type: biochemical

Compound: CC(C)CCC[C@@H](C)[C@H]1CC[C@H]2[C@@H]3CC=C4C[C@@H](O)CC[C@]4(C)[C@H]3CC[C@]12C [cholesterol]
- % reduction of channel activity: ~ 45%

From article PMC3084843 (PLoS ONE, 2011)
